Measurements taken from patent US9290455B2, “CDDO-Me amino acid conjugates and methods of use” (Trustees of Dartmouth College, priority 2014, dated 2016).

Tested on: reactive oxygen species
Test: Reactive oxygen species in tBHP-challenged RAW cells (H2DCFA, flow cytometry)
Format: cell-based
Details: 100 nM for 18 hours, 250 μM tBHP for 15 minutes
Experimental: RAW264.7 cells were incubated with 10 and 100 nM of the synthetic triterpenoids for 18 hours, H2DCFA was then added for 30 minutes and the cells were challenged with 250 μM of tert-butyl hydroperoxide for 15 minutes to induce ROS. Mean fluorescence intensity of 50,000 cells was detected by flow cytometry. The results were obtained from three independent experiments.
The antioxidative activity of these compounds was explored as well. This experiment was based on the deacetylation and then oxidation of the non-fluorescent reagent 2′,7′-dichlorodihydrofluorescein diacetate (H2DCFA) to a fluorescent derivative. To study the effects of the TPs on oxidative stress, RAW cells were treated with 10-100 nM of the TPs for 18 hours. Cells were then incubated with 10 μM H2DCFA for […] and challenged with 250 μM of tert-butyl hydroperoxide (tBHP) for 15 minutes. The mean fluorescence intensity was measured by flow cytometry, using a 480 nm excitation wavelength and a 525 nm emission wavelength.

COC(=O)[C@]12CCC(C)(C)C[C@H]1[C@H]1C(=O)C=C3[C@@]4(C)C=C(C#N)C(=O)C(C)(C)[C@@H]4CC[C@@]3(C)[C@]1(C)CC2 [CDDO-Me, bardoxolone methyl]
protection against ROS at 100 nM compared with 10 nM: slightly better
